# Where a name gives a salt, the structure may show the parent alone.
# Molecular target: Recombinant Btk (Homo sapiens (Human), UniProt Q06187)
# Assay: BTK kinase assay (TR-FRET)
# Conditions: read-out: IC50 (nM) Btk; 1 hour pre-incubation, ATP at Km
# Recombinant Btk, sequence (Q06187 whole entry): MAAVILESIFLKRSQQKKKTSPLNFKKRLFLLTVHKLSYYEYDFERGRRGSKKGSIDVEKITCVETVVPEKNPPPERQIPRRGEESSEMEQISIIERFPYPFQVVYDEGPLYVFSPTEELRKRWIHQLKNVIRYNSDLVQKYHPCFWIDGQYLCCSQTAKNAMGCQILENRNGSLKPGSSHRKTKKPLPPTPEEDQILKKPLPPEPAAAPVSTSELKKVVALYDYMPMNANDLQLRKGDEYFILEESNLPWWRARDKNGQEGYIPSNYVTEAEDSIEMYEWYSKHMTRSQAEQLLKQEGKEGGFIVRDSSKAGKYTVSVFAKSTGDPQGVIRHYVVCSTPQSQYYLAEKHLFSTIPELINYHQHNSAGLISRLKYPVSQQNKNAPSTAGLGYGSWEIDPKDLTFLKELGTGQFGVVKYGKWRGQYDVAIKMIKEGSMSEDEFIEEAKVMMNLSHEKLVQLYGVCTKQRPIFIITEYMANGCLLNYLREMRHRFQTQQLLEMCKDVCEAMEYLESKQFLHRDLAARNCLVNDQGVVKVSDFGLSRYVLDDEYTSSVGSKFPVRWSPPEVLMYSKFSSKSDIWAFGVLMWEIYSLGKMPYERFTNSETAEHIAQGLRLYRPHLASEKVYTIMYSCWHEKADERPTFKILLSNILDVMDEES
row,SMILES,IC50
1,"C=CC(=O)NCC1(C)CCNc2c(C(N)=O)c(-c3ccc(Oc4ccccc4)cc3)nn21 (centres unmarked) [Compound 143, 7-(acrylamidomethyl)-7-methyl-2-(4-phenoxyphenyl)-4,5,6,7-tetrahydropyrazolo[1,5-a]pyrimidine-3-carboxamide]",0.89 nM
2,"C=CC(=O)Nc1ccc2c(c1)CC(=O)Nc1c(C(N)=O)c(-c3ccc(Oc4ccccc4)cc3)nn1-2 [Compound 75, 8-Acrylamido-5-oxo-2-(4-phenoxyphenyl)-5,6-dihydro-4H-benzo[f]pyrazolo[1,5-a][1,3]diazepine-3-carboxamide]",41 nM
3,"NC(=O)c1c(-c2ccc(Oc3ccccc3)cc2)nn2c(C3CCNCC3)cc(=O)[nH]c12 [Compound 80, 5-Oxo-2-(4-phenoxyphenyl)-7-(piperidin-4-yl)-4,5-dihydropyrazolo[1,5-a]pyrimidine-3-carboxamide]",> 10000 nM
4,"NC(=O)c1c(-c2ccc(Oc3ccccc3)cc2)nn2c1NCC21CCNCC1 [Compound 39, 6-(4-Phenoxyphenyl)-1,2-dihydrospiro[imidazo[1,2-b]pyrazole-3,4′-piperidine]-7-carboxamide]",1400 nM
5,"CNc1ccccc1C1CCNc2c(C(N)=O)c(-c3ccc(Oc4ccc(F)cc4)cc3)nn21 (centres unmarked) [Compound 15, 2-(4-(4-Fluorophenoxy)phenyl)-7-(2-(methylamino)phenyl)-4,5,6,7-tetrahydropyrazolo[1,5-a]pyrimidine-3-carboxamide]",2700 nM
6,"NC(=O)c1c(-c2ccc(Oc3ccccc3)cc2)nn2c1NCCC21CNC1 [Compound 118, 2′-(4-phenoxyphenyl)-5′,6′-dihydro-4′H-spiro[azetidine-3,7′-pyrazolo[1,5-a]pyrimidine]-3′-carboxamide]",410 nM
7,"C=CC(=O)Nc1ccccc1C1CCNc2c(C(N)=O)c(-c3ccc(F)c(Cl)c3)nn21 (centres unmarked) [Compound 196, 7-(2-Acrylamidophenyl)-2-(3-chloro-4-fluorophenyl)-4,5,6,7-tetrahydropyrazolo[1,5-a]pyrimidine-3-carboxamide]",1.1 nM
8,"NC(=O)c1c(-c2ccc(Oc3ccccc3)cc2)nn2c1NCC21CNC1 [Compound 45, 6′-(4-Phenoxyphenyl)-1′,2′-dihydrospiro[azetidine-3,3′-imidazo[1,2-b]pyrazole]-7′-carboxamide]",510 nM
9,"C=CC(=O)Nc1ccccc1C1CCNc2c(C(N)=O)c(-c3cc(Cl)c(OC)c(Cl)c3)nn21 (centres unmarked) [Compound 169, 7-(2-Acrylamidophenyl)-2-(3,5-dichloro-4-methoxyphenyl)-4,5,6,7-tetrahydropyrazolo[1,5-a]pyrimidine-3-carboxamide]",0.15 nM
10,"NC(=O)c1c(-c2ccc(OC3CCCC3)cc2)nn2c1NCCC2c1ccccc1N (centres unmarked) [Compound 17, 7-(2-Aminophenyl)-2-(4-(cyclopentyloxy)phenyl)-4,5,6,7-tetrahydro pyrazolo[1,5-a]pyrimidine-3-carboxamide]",> 10000 nM
11,"NC(=O)c1c(-c2ccc(Oc3ccccc3)cc2)nn2c1[nH]c(=O)c1ccc(N)cc12 [Compound 79, 8-Amino-5-oxo-2-(4-phenoxyphenyl)-4,5-dihydropyrazolo[1,5-a]quinazoline-3-carboxamide]",50 nM
12,"NC(=O)c1c(-c2ccc(Oc3ccccc3)cc2)nn2c3c([nH]c12)CCN(C(=O)CCCl)C3 [Compound 53, 7-(3-Chloropropanoyl)-2-(4-phenoxyphenyl)-5,6,7,8-tetrahydro-4H-pyrazolo[5′,1′:2,3]imidazo[4,5-c]pyridine-3-carboxamide]",7.7 nM
13,"CC#CC(=O)NCC1CCNc2c(C(N)=O)c(-c3ccc(Oc4ccccc4)cc3)nn21 (centres unmarked) [Compound 185, 7-(But-2-ynamidomethyl)-2-(4-phenoxyphenyl)-4,5,6,7-tetrahydropyrazolo[1,5-a]pyrimidine-3-carboxamide]",4.3 nM
14,"C=CC(=O)Nc1ccccc1C1CCNc2c(C(N)=O)c(-c3ccc(C(F)(F)F)c(Cl)c3)nn21 (centres unmarked) [Compound 162, 7-(2-Acrylamidophenyl)-2-(3-chloro-4-(trifluoromethyl)phenyl)-4,5,6,7-tetrahydropyrazolo[1,5-a]pyrimidine-3-carboxamide]",2.1 nM
15,"C=CC(=O)N1CC(C2CCNc3c(C(N)=O)c(-c4ccc(Oc5cccc(Cl)c5)cc4)nn32)C1 (centres unmarked) [Compound 107, 7-(1-acryloylazetidin-3-yl)-2-(4-(3-chlorophenoxy)phenyl)-4,5,6,7-tetrahydropyrazolo[1,5-a]pyrimidine-3-carboxamide]",0.48 nM
16,CN(C)C/C=C/C(=O)N1CCc2[nH]c3c(C(N)=O)c(-c4ccc(Oc5ccccc5)cc4)nn3c2CC1 [Compound 122],0.78 nM
17,"CN(C)C/C=C/C(=O)N1CCCc2[nH]c3c(C(N)=O)c(-c4ccc(Oc5ccccc5)cc4)nn3c2C1 [Compound 124, (E)-8-(4-(dimethylamino)but-2-enoyl)-2-(4-phenoxyphenyl)-4,5,6,7,8,9-hexahydropyrazolo[5′,1′:2,3]imidazo[4,5-c]azepine-3-carboxamide]",0.62 nM
18,"CC(C)(C)OC(=O)N1CC2[C@@H](CNc3c(C(N)=O)c(-c4ccc(Oc5ccccc5)cc4)nn32)C1 (single isomer, unassigned) [Compound 114, Cis-7-(1-tert-Butoxycarbonyl)-2-(4-phenoxyphenyl)-5,5a,6,7,8,8a-hexahydro-4H-pyrazolo[1,5-a]pyrrolo[3,4-e]pyrimidine-3-carboxamide]",6000 nM

row,SMILES,IC50
1,"C=CC(=O)N1CC(C2CCNc3c(C(N)=O)c(-c4ccc(Oc5ccc(Cl)c(Cl)c5)cc4)nn32)C1 (centres unmarked) [Compound 132, 7-(1-acryloylazetidin-3-yl)-2-(4-(3,4-dichlorophenoxy)phenyl)-4,5,6,7-tetrahydropyrazolo[1,5-a]pyrimidine-3-carboxamide]",1.7 nM
2,"N#Cc1c(-c2ccc(Oc3ccccc3)cc2)nn2c(-c3cccc(N)c3)ccnc12 [Compound 1, 7-(3-Aminophenyl)-2-(4-phenoxyphenyl)pyrazolo[1,5-a]pyrimidine-3-carbonitrile]",> 10000 nM
3,"C=CC(=O)NCC1CCNc2c(C(N)=O)c(-c3ccc(OCc4ccccc4)cc3)nn21 (centres unmarked) [Compound 111, 7-(acrylamidomethyl)-2-(4-(benzyloxy)phenyl)-4,5,6,7-tetrahydropyrazolo[1,5-a]pyrimidine-3-carboxamide]",24 nM
4,"NC(=O)c1c(-c2ccc(Oc3ccccc3)cc2)nn2c1NCCC21CCNCC1 [Compound 42, 2′-(4-Phenoxyphenyl)-5′,6′-dihydro-4′H-spiro[piperidine-4,7′-pyrazolo [1,5-a]pyrimidine]-3′-carboxamide trifluoroacetate]",330 nM
5,"N#CC(=CC1CC1)C(=O)N1CCC([C@@H]2CCNc3c(C(N)=O)c(-c4ccc(Oc5ccccc5)cc4)nn32)CC1 [Compound 181, (S)-7-(1-(2-cyano-3-cyclopropylacryloyl)piperidin-4-yl)-2-(4-phenoxyphenyl)-4,5,6,7-tetrahydropyrazolo[1,5-a]pyrimidine-3-carboxamide]",25 nM
6,"C=CC(=O)NCC1CCNc2c(C(N)=O)c(-c3ccc(OCc4ccccc4)c(OC)c3)nn21 (centres unmarked) [Compound 142, 7-(acrylamidomethyl)-2-(4-(benzyloxy)-3-methoxyphenyl)-4,5,6,7-tetrahydropyrazolo[1,5-a]pyrimidine-3-carboxamide]",54 nM
7,"C=CC(=O)Nc1ccccc1C1CCNc2c(C(N)=O)c(-c3ccc(Cl)c(OC)c3)nn21 (centres unmarked) [Compound 160, 7-(2-Acrylamidophenyl)-2-(4-chloro-3-methoxyphenyl)-4,5,6,7-tetrahydropyrazolo[1,5-a]pyrimidine-3-carboxamide]",0.49 nM
8,"NC(=O)c1c(-c2ccc(Oc3ccccc3)cc2)nn2cc(-c3cccc(N)c3)[nH]c12 [Compound 47, 2-(3-Aminophenyl)-6-(4-phenoxyphenyl)-1H-imidazo[1,2-b]pyrazole-7-carboxamide]",110 nM
9,"C=CC(=O)Nc1ccccc1C1CCNc2c(C(N)=O)c(-c3ccc(Cl)c(F)c3)nn21 (centres unmarked) [Compound 154, 7-(2-Acrylamidophenyl)-2-(4-chloro-3-fluorophenyl)-4,5,6,7-tetrahydropyrazolo[1,5-a]pyrimidine-3-carboxamide]",1.2 nM
10,"C=CC(=O)N1CC2(CNc3c(C(N)=O)c(-c4ccc(Oc5ccccc5)cc4)nn32)C1 [Compound 46, 1-Acryloyl-6′-(4-phenoxyphenyl)-1′,2′-dihydrospiro[azetidine-3,3′-imidazo[1,2-b]pyrazole]-7′-carboxamide]",5 nM
11,"NC(=O)c1c(-c2ccc(Oc3ccccc3)cc2)nn2c1NCC21CCN(Cc2ccccc2)CC1 [Compound 38, 1′-Benzyl-6-(4-phenoxyphenyl)-1,2-dihydrospiro[imidazo[1,2-b]pyrazole-3,4′-piperidine]-7-carboxamide]",490 nM
12,"NCC1CCNc2c(C(N)=O)c(-c3ccc(Oc4ccccc4)cc3)nn21 (centres unmarked) [Compound 32, 7-(Aminomethyl)-2-(4-phenoxyphenyl)-4,5,6,7-tetrahydropyrazolo [1,5-a]pyrimidine-3-carboxamide]",1700 nM
13,C=CC(=O)N1CCC(c2cc(=O)[nH]c3c(C(N)=O)c(-c4ccc(Oc5ccccc5)cc4)nn23)CC1 [Compound 81],5900 nM
14,"NC(=O)c1c(-c2ccc(OCc3ccccc3)cc2)nn2c1NCCC2c1ccccc1N (centres unmarked) [Compound 9, 7-(2-Aminophenyl)-2-(4-(benzyloxy)phenyl)-4,5,6,7-tetrahydro pyrazolo[1,5-a]pyrimidine-3-carboxamide]",3700 nM
15,"NC(=O)c1c(-c2ccc(Oc3ccccc3)cc2)nn2c1[nH]c(=O)c1cc(N)ccc12 [Compound 77, 7-Amino-5-oxo-2-(4-phenoxyphenyl)-4,5-dihydropyrazolo[1,5-a]quinazoline-3-carboxamide]",480 nM
16,"NC(=O)c1c(-c2ccc(Oc3ccccc3)cc2)nn2c1NCCC2C1CCNCC1 (centres unmarked) [Compound 26, 7-(Piperidin-4-yl)-2-(4-phenoxyphenyl)-4,5,6,7-tetrahydropyrazolo [1,5-a]pyrimidine-3-carboxamide trifluoroacetate]",1700 nM
17,"COc1ccc(-c2nn3c(c2C(N)=O)NCCC3c2ccccc2N)cc1 (centres unmarked) [Compound 93, 7-(2-Aminophenyl)-2-(4-methoxyphenyl)-4,5,6,7-tetrahydropyrazolo[1,5-a]pyrimidine-3-carboxamide]",1500 nM
